Reference: ChEMBL document CHEMBL3885861, “Open TG-GATES”

Organism: Rattus norvegicus
Test: Open TG-GATES - Regimen: Daily Repeat
Type: toxicity, organism-based, Sprague-Dawley
Set-up: regimen Daily Repeat, gender Male, age 6 weeks
Conditions: in vivo, po, 300 mg/kg, route gavage, dose level High; for APTT / Bas / Eos / Fbg / Hb / Ht / Lym / MCH / MCHC / MCV / Mono / Neu / PT / Plat / RBC / Ret / WBC: tissue Blood; for KIDNEY_L / KIDNEY_R / KIDNEY_TOTAL: tissue Kidney; for LIVER: tissue Liver; for A/G / ALP / ALT / AST / BUN / CRE / Ca / Cl / DBIL / GLC / IP / K / LDH / Na / PL / RALB / TBIL / TC / TG / TP / gamma-GTP: tissue Plasma

With `CCCNC(=O)NS(=O)(=O)c1ccc(Cl)cc1` [CHLORPROPAMIDE] the TERMINAL_BW (72 h, time 3 day) was 191.6 g, the APTT (72 h, time 3 day) was 18.9 s and the Bas (72 h, time 3 day) was 0.2%. It also gave an Eos (72 h, time 3 day) of 1%, a Fbg (72 h, time 3 day) of 316.6 mg/dL and a Hb (72 h, time 3 day) of 13.3 g/dL. It also gave a Ht (72 h, time 3 day) of 39.6%, a Lym (72 h, time 3 day) of 80.6% and an MCH (72 h, time 3 day) of 20.6 pg. It also gave an MCHC (72 h, time 3 day) of 33.5%, an MCV (72 h, time 3 day) of 61.6 fL and a Mono (72 h, time 3 day) of 1.8%. The Neu (72 h, time 3 day) was 15.2%, the PT (72 h, time 3 day) was 16.2 s and the Plat (72 h, time 3 day) was 110.6 x10_4/uL. The RBC (72 h, time 3 day) was 645.4 x10_4/ul, the Ret (72 h, time 3 day) was 3.8% and the WBC (72 h, time 3 day) was 88.9 x10_2/uL. The KIDNEY_L (72 h, time 3 day) was 0.8 g, the KIDNEY_R (72 h, time 3 day) was 0.8 g and the KIDNEY_TOTAL (72 h, time 3 day) was 1.7 g. It also gave an LIVER (72 h, time 3 day) of 8.1 g, an A/G (72 h, time 3 day) of 0.9 and an ALP (72 h, time 3 day) of 1546.2 IU/L. It also gave an ALT (72 h, time 3 day) of 46 IU/L, an AST (72 h, time 3 day) of 64.2 IU/L and a BUN (72 h, time 3 day) of 14.8 mg/dL. For the same compound, the CRE (72 h, time 3 day) was 0.2 mg/dL, the Ca (72 h, time 3 day) was 10.6 mg/dL and the Cl (72 h, time 3 day) was 109.8 meq/L. The DBIL (72 h, time 3 day) was 0.002 mg/dL, the GLC (72 h, time 3 day) was 166 mg/dL and the IP (72 h, time 3 day) was 6.6 mg/dL. It also gave a K (72 h, time 3 day) of 3.5 meq/L, an LDH (72 h, time 3 day) of 63.2 IU/L and a Na (72 h, time 3 day) of 142.4 meq/L. The PL (72 h, time 3 day) was 154.8 mg/dL, the RALB (72 h, time 3 day) was 2.6 g/dL and the TBIL (72 h, time 3 day) was 0.02 mg/dL. The TC (72 h, time 3 day) was 84.2 mg/dL, the TG (72 h, time 3 day) was 55.6 mg/dL and the TP (72 h, time 3 day) was 5.7 g/dL. The gamma-GTP (72 h, time 3 day) was 1.2 IU/L, the TERMINAL_BW ([…], time 7 day) was 213.5 g and the TERMINAL_BW ([…], time 14 day) was 232.5 g. The TERMINAL_BW ([…], time 28 day) was 294.1 g, the APTT ([…], time 7 day) was 20.1 s and the Bas ([…], time 7 day) was 0%. For the same compound, the Eos ([…], time 7 day) was 1%, the Fbg ([…], time 7 day) was 286.8 mg/dL and the Hb ([…], time 7 day) was 13.1 g/dL. The Ht ([…], time 7 day) was 40.1%, the Lym ([…], time 7 day) was 81% and the MCH ([…], time 7 day) was 20.3 pg. It also gave an MCHC ([…], time 7 day) of 32.8%, an MCV ([…], time 7 day) of 62 fL and a Mono ([…], time 7 day) of 2.6%. For the same compound, the Neu ([…], time 7 day) was 14.6%, the PT ([…], time 7 day) was 16.4 s and the Plat ([…], time 7 day) was 111.5 x10_4/uL. The RBC ([…], time 7 day) was 647.8 x10_4/ul, the Ret ([…], time 7 day) was 5.6% and the WBC ([…], time 7 day) was 95.7 x10_2/uL. It also gave an APTT ([…], time 14 day) of 33.4 s, a Bas ([…], time 14 day) of 0% and an Eos ([…], time 14 day) of 0.8%. For the same compound, the Fbg ([…], time 14 day) was 283.2 mg/dL, the Hb ([…], time 14 day) was 14.4 g/dL and the Ht ([…], time 14 day) was 43.1%. For the same compound, the Lym ([…], time 14 day) was 83.6%, the MCH ([…], time 14 day) was 20.3 pg and the MCHC ([…], time 14 day) was 33.5%. For the same compound, the MCV ([…], time 14 day) was 60.5 fL, the Mono ([…], time 14 day) was 2.2% and the Neu ([…], time 14 day) was 12%. It also gave a PT ([…], time 14 day) of 16.6 s, a Plat ([…], time 14 day) of 105.9 x10_4/uL and an RBC ([…], time 14 day) of 712.6 x10_4/ul. The Ret ([…], time 14 day) was 3.8%, the WBC ([…], time 14 day) was 79.2 x10_2/uL and the APTT ([…], time 28 day) was 22.6 s. For the same compound, the Bas ([…], time 28 day) was 0.2%, the Eos ([…], time 28 day) was 0.8% and the Fbg ([…], time 28 day) was 282.6 mg/dL. For the same compound, the Hb ([…], time 28 day) was 14.5 g/dL, the Ht ([…], time 28 day) was 44.1% and the Lym ([…], time 28 day) was 78.2%. The MCH ([…], time 28 day) was 18.5 pg, the MCHC ([…], time 28 day) was 32.9% and the MCV ([…], time 28 day) was 56.1 fL. It also gave a Mono ([…], time 28 day) of 2.8%, a Neu ([…], time 28 day) of 16.8% and a PT ([…], time 28 day) of 16.7 s. For the same compound, the Plat ([…], time 28 day) was 93.9 x10_4/uL, the RBC ([…], time 28 day) was 786 x10_4/ul and the Ret ([…], time 28 day) was 2.3%. For the same compound, the WBC ([…], time 28 day) was 126.5 x10_2/uL, the KIDNEY_L ([…], time 7 day) was 0.9 g and the KIDNEY_R ([…], time 7 day) was 0.9 g. It also gave a KIDNEY_TOTAL ([…], time 7 day) of 1.8 g, a KIDNEY_L ([…], time 14 day) of 1 g and a KIDNEY_R ([…], time 14 day) of 1 g. The KIDNEY_TOTAL ([…], time 14 day) was 2.1 g, the KIDNEY_L ([…], time 28 day) was 1.2 g and the KIDNEY_R ([…], time 28 day) was 1.2 g. The KIDNEY_TOTAL ([…], time 28 day) was 2.4 g, the LIVER ([…], time 7 day) was 9.7 g and the LIVER ([…], time 14 day) was 11 g. For the same compound, the LIVER ([…], time 28 day) was 13.2 g, the A/G ([…], time 7 day) was 0.9 and the ALP ([…], time 7 day) was 1590.8 IU/L. The ALT ([…], time 7 day) was 48 IU/L, the AST ([…], time 7 day) was 69.2 IU/L and the BUN ([…], time 7 day) was 18.6 mg/dL. The CRE ([…], time 7 day) was 0.2 mg/dL, the Ca ([…], time 7 day) was 10.9 mg/dL and the Cl ([…], time 7 day) was 110.8 meq/L. For the same compound, the DBIL ([…], time 7 day) was 0.004 mg/dL, the GLC ([…], time 7 day) was 187 mg/dL and the IP ([…], time 7 day) was 7.6 mg/dL. It also gave a K ([…], time 7 day) of 3.3 meq/L, an LDH ([…], time 7 day) of 68.4 IU/L and a Na ([…], time 7 day) of 145.2 meq/L. For the same compound, the PL ([…], time 7 day) was 165.2 mg/dL, the RALB ([…], time 7 day) was 2.6 g/dL and the TBIL ([…], time 7 day) was 0.016 mg/dL. It also gave a TC ([…], time 7 day) of 82.2 mg/dL, a TG ([…], time 7 day) of 60.2 mg/dL and a TP ([…], time 7 day) of 5.7 g/dL. It also gave a gamma-GTP ([…], time 7 day) of 1 IU/L, an A/G ([…], time 14 day) of 0.8 and an ALP ([…], time 14 day) of 1780 IU/L. It also gave an ALT ([…], time 14 day) of 51 IU/L, an AST ([…], time 14 day) of 72.2 IU/L and a BUN ([…], time 14 day) of 17.6 mg/dL. For the same compound, the CRE ([…], time 14 day) was 0.2 mg/dL, the Ca ([…], time 14 day) was 10.3 mg/dL and the Cl ([…], time 14 day) was 111.2 meq/L. For the same compound, the DBIL ([…], time 14 day) was 0.004 mg/dL, the GLC ([…], time 14 day) was 182.6 mg/dL and the IP ([…], time 14 day) was 7.8 mg/dL. The K ([…], time 14 day) was 3.2 meq/L, the LDH ([…], time 14 day) was 85 IU/L and the Na ([…], time 14 day) was 145.2 meq/L. For the same compound, the PL ([…], time 14 day) was 158 mg/dL, the RALB ([…], time 14 day) was 2.7 g/dL and the TBIL ([…], time 14 day) was 0.012 mg/dL. It also gave a TC ([…], time 14 day) of 75 mg/dL, a TG ([…], time 14 day) of 72.4 mg/dL and a TP ([…], time 14 day) of 5.9 g/dL. It also gave a gamma-GTP ([…], time 14 day) of 1 IU/L, an A/G ([…], time 28 day) of 0.8 and an ALP ([…], time 28 day) of 1231.8 IU/L. For the same compound, the ALT ([…], time 28 day) was 47.8 IU/L, the AST ([…], time 28 day) was 70 IU/L and the BUN ([…], time 28 day) was 20 mg/dL. The CRE ([…], time 28 day) was 0.2 mg/dL, the Ca ([…], time 28 day) was 10.5 mg/dL and the Cl ([…], time 28 day) was 110.4 meq/L. The DBIL ([…], time 28 day) was 0.002 mg/dL, the GLC ([…], time 28 day) was 196.4 mg/dL and the IP ([…], time 28 day) was 6.7 mg/dL. The K ([…], time 28 day) was 3 meq/L, the LDH ([…], time 28 day) was 67.4 IU/L and the Na ([…], time 28 day) was 146.4 meq/L. It also gave a PL ([…], time 28 day) of 148.6 mg/dL, an RALB ([…], time 28 day) of 2.7 g/dL and a TBIL ([…], time 28 day) of 0.008 mg/dL. It also gave a TC ([…], time 28 day) of 65.6 mg/dL, a TG ([…], time 28 day) of 89.4 mg/dL and a TP ([…], time 28 day) of 6 g/dL. For the same compound, the gamma-GTP ([…], time 28 day) was 1.2 IU/L.
